Usually EC50 stands for the concentration needed to bring the measured effect to its halfway point.

Test [1] has as its system Sil-15 cells containing a RARE driving a lacZ reporter. As to the kind of experiment: X-Gal-based RA reporter assay (genomic response). Type of test: cell-based. Also on record: genomic response Emax (±95% CI): unit not given here. The following applies: for genomic response Emax (±95% CI) / EC50: Sil-15 reporter cells; for genomic response Emax (±95% CI): absorbance at 650 nm; for genomic E max compared with ATRA / genomic EC50 compared with ATRA: nonoverlapping 95% CI; for EC50: read-out: genomic response EC50 (±95% CI), overnight, 10^–6 to 10^–14 M. From the text:
Following chemical design and synthesis, the synthetic retinoid library was screened for genomic and nongenomic biological activities and compared to the response of the endogenous retinoid, ATRA. In these assays, the EC50 value represented the concentration of retinoid that gave half-maximal response (potency), while the E max value represented the maximum response achievable from the retinoid (efficacy).
The transcriptional genomic activity of the retinoids was quantified using Sil-15 cells containing a RARE driving a lacZ reporter. […] Twenty-two of the synthetic retinoids were effective in inducing genomic activity. […] In addition, the retinoids varied in their efficacies.
The Sil-15 cell line was used in the X-gal RA reporter assay described below. The cells were grown in Dulbecco’s modified Eagle’s medium (DMEM) containing 10% fetal bovine serum (FCS) (Invitrogen/Gibco), 0.6% penicillin-streptomycin (Gibco) and 0.8 mg/mL G418 sulfate (Sigma) for selection. They were maintained in a humidified atmosphere containing 5% CO2 at 37 °C. The medium was changed three times a week and the cells were passaged at 70% confluence using 0.05% trypsin-EDTA.
Sil-15 cells are F9 teratocarcinoma cells stably transfected with a plasmid containing the LacZ gene under the control of a DR5-type RA response element (RARE). The reporter cell line was used to detect the transcriptional genomic activity of ATRA and other retinoids by colorimetrically quantifying the insoluble blue product generated by β-galactosidase from X-gal during the assay. The assay was performed by plating 100,000 cells per well in the 0.1% gelatin-coated 96-well plates and leaving them to attach overnight. The ATRA/retinoids dilutions ranging from 10^–6 to 10^–14 M were incubated on the reporter cells overnight at 37 °C, in 5% CO2. A standard curve of ATRA was included in each experiment to ensure the reproducibility of the results between assays performed on different days. All the assays for ATRA as well as the retinoids were quantified in triplicate. Serial dilutions of retinoids were prepared from a stock solution under red/orange light. The stock solutions prepared in DMSO for each retinoid varied depending on the solubility of each compound. Each stock was stored at −20 °C and protected from light. The next day, Sil-15 cells were washed with PBS, fixed with 1% glutaraldehyde and 1 mM MgCl2 solution for 15 min, and developed in X-gal developing solution (0.2% X-Gal, 1 mM MgCl2, 3.3 mM potassium ferricyanide and 3.3 mM potassium ferrocyanide in PBS). The plates were read on an E max microplate reader (Molecular Devices) at 650 nm.
(§1) All data are presented as mean ± SEM of three independent experiments with biological triplicates. Statistical analyses were performed in Microsoft Office Excel 2019 or GraphPad Prism 7.0c version (Prism, GraphPad Software, San Diego, CA). Neurite outgrowth data were analyzed by one-way ANOVA with Newman-Keuls multiple comparison test as appropriate; P value <0.05 was considered statistically significant. *P < 0.05, **P < 0.01. Data for X-Gal and ERK1/2 phosphorylation were analyzed using sigmoidal dose–response analysis of log (agonist) versus response curve (stimulation).

Test [2] deals with ERK1/2 phosphorylation in SH-SY5Y cells. As to the kind of experiment: ERK1/2 phosphorylation (nongenomic response), AlphaScreen SureFire. Type of test: cell-based, human. Particulars: for EC50: Homo sapiens, read-out: nongenomic response EC50 (±95% CI); for EC50 / nongenomic response Emax (±95% CI) / induction of ERK1/2 phosphorylation (nongenomic activity): SH-SY5Y cells, 1 h; for nongenomic E max compared with ATRA: nonoverlapping 95% CI. As for the experimental part: After screening the retinoids for genomic responses, they were tested for their nongenomic ability to rapidly phosphorylate ERK1/2 in the SH-SY5Y cell line. ATRA is known as a potent activator of ERK1/2 − and was used as the standard for comparison. […] The efficacies of the remaining seven retinoids were similar to ATRA.
SH-SY5Y cell line as used in ERK phosphorylation and neurite outgrowth assays described below. The cells were grown in DMEM containing 10% FCS at 37 °C with 5% CO2. The medium was changed three times a week and the cells were passaged at 70% confluence using 0.05% trypsin-EDTA.
To quantify ERK1/2 phosphorylation, SH-SY5Y cells (100,000 cells/well) were plated onto 96-well plates and serum-starved for 24 h in DMEM. Cells were assayed in serum-free DMEM and stimulated for 60 min at 37 °C in a humidified atmosphere. Retinoids were tested at concentrations ranging from 10 to 4 to 10–11 M and at a final concentration of 0.1% DMSO. At the end of the assay, the medium was removed, and cells were lysed with lysis buffer supplied in the AlphaScreen SureFire ERK1/2 kit (PerkinElmer). The assay was performed in 384-well white Proxiplates according to the manufacturer’s instructions and using the beads supplied in the protein A general IgG detection kit (PerkinElmer). Briefly, 4 μL samples were incubated with 7 μL of the freshly prepared mixture containing donor and acceptor beads. Plates were incubated at room temperature and read with the Envision system (PerkinElmer Life Sciences) using AlphaScreen settings.
as §1
On the technique in general: In Alpha technology, singlet oxygen from a donor bead excites a nearby acceptor bead.

On to `CC1(C)CCC(C)(C)c2cc(C#Cc3ccc(C(=O)O)c(F)c3)ccc21` [Compound 13, 2-Fluoro-4-[2-(5,5,8,8-tetramethyl-5,6,7,8-tetrahydronaphthalen-2-yl)ethynyl]benzoic Acid], for which, in test [1], the “genomic response Emax (±95% CI)” value is 190 (±8.2) and the “genomic E max compared with ATRA” value is given as “significantly higher E max than ATRA”. For the same molecule, in test [2], the EC50 turned out to be 2.44 nM, the “nongenomic response Emax (±95% CI)” value is recorded as 43.4 (±1.81) and the “nongenomic E max compared with ATRA” value is reported as “E max values significantly lower than ATRA”.

Consider `CC1(C)CCC(C)(C)c2cc(C#Cc3ccc(C(=O)O)cc3F)ccc21` [Compound 14, 3-Fluoro-4-[2-(5,5,8,8-tetramethyl-5,6,7,8-tetrahydronaphthalen-2-yl)ethynyl]benzoic Acid], for which, in test [1], the “genomic response Emax (±95% CI)” value was 149 (±14.9), the “genomic E max compared with ATRA” value is given as “significantly lower E max than ATRA” and the EC50 was 0.0581 nM. Also, in test [2], the EC50 was determined as 27.4 nM and the “nongenomic response Emax (±95% CI)” value is on record as 50.7 (±2.51).

With `CC1(C)CCC(C)(C)c2cc(C#Cc3cc(F)c(C(=O)O)c(F)c3)ccc21` [Compound 15, 2,6-Difluoro-4-[2-(5,5,8,8-tetramethyl-5,6,7,8-tetrahydronaphthalen-2-yl)ethynyl]benzoic Acid], in test [1], the “genomic response Emax (±95% CI)” value is given as 185 (±4.9) and the “genomic E max compared with ATRA” value is recorded as “significantly higher E max than ATRA”. In test [2], the EC50 is 125 nM, the “induction of ERK1/2 phosphorylation (nongenomic activity)” value (from here on “induction of ERK1/2 phosphorylation”) is “showed activity toward the nongenomic pathway”, the “nongenomic response Emax (±95% CI)” value is 76.2 (±5.47) and the “nongenomic E max compared with ATRA” value is reported as “E max values significantly higher than ATRA”.

With `CC1(C)CCC(C)(C)c2cc(C#Cc3ccc(C(=O)O)cc3Cl)ccc21` [Compound 16, 3-Chloro-4-[2-(5,5,8,8-tetramethyl-5,6,7,8-tetrahydronaphthalen-2-yl)ethynyl]benzoic Acid], in test [1], the “genomic response Emax (±95% CI)” value was 97.2 (±7.9), the “genomic E max compared with ATRA” value is reported as “significantly lower E max than ATRA”, the “genomic EC50 compared with ATRA” value is “significantly higher EC50 values than ATRA” and the EC50 was 13.6 nM. Also, in test [2], the EC50 came out at 90.8 nM, the “nongenomic response Emax (±95% CI)” value is given as 36.9 (±2.77) and the “nongenomic E max compared with ATRA” value was “E max values significantly lower than ATRA”.

On to `Cc1cc2c(cc1C#Cc1ccc(C(=O)O)c(F)c1)C(C)(C)CCC2(C)C` [Compound 17, 2-Fluoro-4-[2-(3,5,5,8,8-pentamethyl-5,6,7,8-tetrahydronaphthalen-2-yl)ethynyl]benzoic Acid], for which, in test [1], the “genomic response Emax (±95% CI)” value is listed as 170 (±9.35), the “genomic EC50 compared with ATRA” value was “significantly lower EC50 than ATRA” and the EC50 was 0.134 nM. In test [2], the EC50 was 5.73 nM and the “nongenomic response Emax (±95% CI)” value was 44.1 (±2.69).

Regarding `Cc1cc2c(cc1C#Cc1ccc(C(=O)O)cc1F)C(C)(C)CCC2(C)C` [Compound 18, 3-Fluoro-4-[2-(3,5,5,8,8-pentamethyl-5,6,7,8-tetrahydronaphthalen-2-yl)ethynyl]benzoic Acid], in test [1], the “genomic response Emax (±95% CI)” value is 140 (±12.1), the “genomic E max compared with ATRA” value was “significantly lower E max than ATRA” and the EC50 stood at 1.38 nM. In test [2], the EC50 was found to be 13.1 nM, the “nongenomic response Emax (±95% CI)” value was 40.1 (±1.86) and the “nongenomic E max compared with ATRA” value is on record as “E max values significantly lower than ATRA”.

Turning to `Cc1cc2c(cc1C#Cc1cc(F)c(C(=O)O)c(F)c1)C(C)(C)CCC2(C)C` [Compound 19, 2,6-Difluoro-4-[2-(3,5,5,8,8-pentamethyl-5,6,7,8-tetrahydronaphthalen-2-yl)ethynyl]benzoic Acid], in test [1], the “genomic EC50 compared with ATRA” value is recorded as “significantly lower EC50 than ATRA” and the EC50 was found to be 0.27 nM. In test [2], the EC50 came out at 144 nM, the “nongenomic response Emax (±95% CI)” value was 77.6 (±2.92) and the “nongenomic E max compared with ATRA” value is given as “E max values significantly higher than ATRA”.

`COc1cc2c(cc1C#Cc1cc(F)c(C(=O)O)c(F)c1)C(C)(C)CCC2(C)C` [Compound 22, 2,6-Difluoro-4-[2-(3-methoxy-5,5,8,8-tetramethyl-5,6,7,8-tetrahydronaphthalen-2-yl)ethynyl]benzoic Acid]: in test [1], the “genomic response Emax (±95% CI)” value is 155 (±10.6), the “genomic E max compared with ATRA” value was “significantly lower E max than ATRA” and the EC50 was 0.146 nM. For the same molecule, in test [2], the EC50 amounted to 3.37 nM and the “nongenomic response Emax (±95% CI)” value is recorded as 71.2 (±3.9).

As for `CC1(C)CCC(C)(C)c2cc(C#Cc3ccc(C(=O)O)cn3)ccc21` [Compound 23, 6-[2-(5,5,8,8-Tetramethyl-5,6,7,8-tetrahydronaphthalen-2-yl)ethynyl]pyridine-3-carboxylic Acid], in test [1], the “genomic response Emax (±95% CI)” value is given as 210 (±8.45) and the “genomic E max compared with ATRA” value is recorded as “significantly higher E max than ATRA”. Moreover, in test [2], the EC50 amounted to 23.9 nM, the “induction of ERK1/2 phosphorylation” value is listed as “showed activity toward the nongenomic pathway” and the “nongenomic response Emax (±95% CI)” value is reported as 85.7 (±9.23).

As to `CC1(C)CCC(C)(C)c2cc(C#Cc3ccc(C(=O)O)nc3)ccc21` [Compound 24, 5-[2-(5,5,8,8-Tetramethyl-5,6,7,8-tetrahydronaphthalen-2-yl)ethynyl]pyridine-2-carboxylic Acid], in test [1], the “genomic response Emax (±95% CI)” value was 207 (±19.5), the “genomic E max compared with ATRA” value was “significantly higher E max than ATRA” and the EC50 was found to be 0.146 nM. In addition, in test [2], the EC50 was 13.6 nM, the “induction of ERK1/2 phosphorylation” value was “showed activity toward the nongenomic pathway” and the “nongenomic response Emax (±95% CI)” value was 59.7 (±3.34).

As for `CC1(C)CCC(C)(C)c2cc(C#Cc3cnc(C(=O)O)cn3)ccc21` [Compound 25, 5-[2-(5,5,8,8-Tetramethyl-5,6,7,8-tetrahydronaphthalen-2-yl)ethynyl]pyrazine-2-carboxylic Acid], in test [1], the “genomic response Emax (±95% CI)” value is recorded as 174 (±8.25), the “genomic EC50 compared with ATRA” value is on record as “significantly higher EC50 values than ATRA” and the EC50 came to 3.98 nM. For the same molecule, in test [2], the EC50 was found to be 20.7 nM, the “nongenomic response Emax (±95% CI)” value is 27.9 (±1.66) and the “nongenomic E max compared with ATRA” value is given as “E max values significantly lower than ATRA”.

For `Cc1cc2c(cc1C#Cc1ccc(C(=O)O)cn1)C(C)(C)CCC2(C)C` [Compound 26, 6-[2-(3,5,5,8,8-Pentamethyl-5,6,7,8-tetrahydronaphthalen-2-yl)ethynyl]pyridine-3-carboxylic Acid], in test [1], the “genomic response Emax (±95% CI)” value is on record as 177 (±6.65), the “genomic EC50 compared with ATRA” value is reported as “significantly lower EC50 than ATRA” and the EC50 turned out to be 0.427 nM. Further, in test [2], the EC50 is 459 nM, the “nongenomic response Emax (±95% CI)” value is reported as 56.4 (±6.36) and the “nongenomic E max compared with ATRA” value is recorded as “E max values significantly higher than ATRA”.

The record behind these values is publication PMC12163635, “Synthetic Retinoids for the Modulation of Genomic and Nongenomic Processes in Neurodegenerative Diseases” (ACS Omega, 2025).
